# In US20190322676A1, “CERAMIDE GALACTOSYLTRANSFERASE INHIBITORS FOR THE TREATMENT OF DISEASE” (BioMarin Pharmaceutical Inc., priority 2016, published 2019):
# Where a name gives a salt, the structure may show the parent alone.
# Biological target: T1, human CGT (ceramide galactosyltransferase), CHO/CGT lysate (Homo sapiens, UniProt Q16880)
# T1 construct: Full-length human CGT cDNA was cloned into the BamH1/Xho1 site of pcDNA3.1 (+); expressed in transfected cells; host or cells: Chinese hamster ovary (CHO) cells; lysate prepared with M-PER
# T1 sequence (Q16880 21-541): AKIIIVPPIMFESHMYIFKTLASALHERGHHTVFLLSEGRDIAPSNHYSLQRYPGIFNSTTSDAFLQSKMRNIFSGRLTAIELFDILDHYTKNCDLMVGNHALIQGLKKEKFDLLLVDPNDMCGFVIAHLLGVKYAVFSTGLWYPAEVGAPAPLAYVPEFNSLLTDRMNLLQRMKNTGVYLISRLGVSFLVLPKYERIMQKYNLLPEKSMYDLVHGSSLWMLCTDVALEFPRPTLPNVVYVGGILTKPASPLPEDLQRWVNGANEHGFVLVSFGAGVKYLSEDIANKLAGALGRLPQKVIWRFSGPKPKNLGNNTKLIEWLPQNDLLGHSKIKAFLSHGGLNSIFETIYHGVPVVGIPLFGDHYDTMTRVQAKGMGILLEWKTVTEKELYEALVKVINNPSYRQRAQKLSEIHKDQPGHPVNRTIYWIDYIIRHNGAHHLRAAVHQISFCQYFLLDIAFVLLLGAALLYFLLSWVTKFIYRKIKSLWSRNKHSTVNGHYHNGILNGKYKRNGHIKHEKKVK
# Assay: CGT enzyme assay, LC-MS/MS readout (Table 1 ranges without asterisk)
# Format: biochemical
# Conditions: LC-MS/MS method (range without asterisk)
# Description: Full-length human CGT cDNA was cloned into the BamH1/Xho1 site of pcDNA3.1 (+) mammalian expression vector (V90-20, Invitrogen, Carlsbad, Calif.) and the plasmid was transfected into Chinese hamster ovary (CHO) cells. Lysate was prepared using M-PER (Mammalian Protein Extraction Reagent, ThermoFisher Scientific, Grand Island, N.Y.) in the presence of a protease inhibitor cocktail (P8340, Sigma, Saint Louis, Mo.). Each 100 mm dish (100% confluent, approximately 1×10^7 cells) was lysed with 250 μL of M-PER containing protease inhibitors. Protein concentration was determined using a Pierce BCA protein assay kit (ThermoFisher Scientific). Four micrograms of CHO/CGT lysate was incubated with various concentrations of a compound (0.001 μM-50 μM) in 10 mM HEPES (pH 7.2) containing 35 μM dioleoylphosphatidylcholine, 5 mM MgCl2, 5 mM MnCl2, 1% BSA, 15 mM KCl, 1 mM EGTA, 8 mM CHAPS, 10 μM C6-NBD-dihydro-ceramide and 17.5 μM UDP-galactose in a final reaction volume of 20 μL at 37° C. for 1 hour. The final concentration of DMSO was 0.5% in both compound-treated and mock-treated samples. Tween 80 (0.01%) was optionally added to the reaction mixture to help solubilize the compounds. Each individual reaction was diluted with 80 μL of methanol:acetronitrile (1:3) containing 5 μM N-docdecanoyl-NBD-galactosylceramide (internal standard) to stop the reaction. 200 μL H2O:acetonitile (1:1) was added to precipitate the protein. After sufficient mixing, the plates were centrifuged at 2469 g for 38 minutes, 200 μL of supernatant was transferred to a LC/MS 96-deep well plate and a second spin was performed at 2469 g for 10 minutes. The final supernatant was injected in triplicate for RapidFire/MS/MS analysis.
# An alternative LC-MS/MS based method was also used. For the LC-MS/MS readout, the CGT assay was identical to the one described above except for the following: […] was used as the CGT enzyme source, C12:0 (2R—OH) ceramide was used as the ceramide substrate and 0.3 μM Cl2 ceramide was used as the internal standard. Tween 80 was not present in the reaction mixture. The final supernatant was injected for LC-MS/MS analysis.
# Quantitative analysis using the LC-MS/MS method: The quantitative analysis of C12:0 (2R—OH) ceramide and C12:0 (2R—OH) galactosylceramide by LC-MS/MS was performed on a Shimadzu ultra-fast liquid chromatography (Shimadzu, Japan) coupled with API 4000 mass spectrometer (Applied Biosystems, Concord, Ontario, Canada). Analyst 1.5 software packages (Applied Biosystems) were used to control the LC-MS/MS system, as well as for data acquisition and processing. 10 μL of sample was loaded onto a Luna C18 column (50 mm×2.0 mm, I.D. 3 μm, 100A) (Phenomenex, USA) for chromatographic separation. Mobile phase A consisted of HPLC grade water with 0.1% formic acid (v/v) and mobile phase B consisted of acetonitrile supplemented with 0.1% formic acid (v/v). The separation was achieved using the following gradient program at a flow rate of 0.8 mL/min: the initial mobile phase was 70% B, which was increased in a linear fashion to 95% B in 1.50 min, and then maintained at 95% B until 3.50 min. The mobile phase was then reset to 70% B within 0.01 min, and maintained until 4.50 min. The total run time was 4.50 min. The MS/MS detection was performed in ESI positive mode. The mass transition selected for quantification was m/z 498.5-264.3 for C12:0 (2R—OH) ceramide under the collision energy of 38.8 V, and the mass transition of C12:0 (2R—OH) galactosylceramide was m/z 660.6-264.5 under the collision energy of 51 V. The mass transition of Cl2 ceramide which was used as internal standard was m/z 482.4-264.3 under the collision energy of 33V. Compound IC50 values were calculated using a protocol identical to the one described for the RapidFire method (see Table 1, where data ranges without an asterix correspond to analysis using the LC-MS/MS method).
# Using the above CGT enzyme and CGT cellular assays, the compounds of Table 1 were tested. […]
row,Structure (SMILES),IC50 [µM]
1,"CC(C)Oc1ccc2cc(C(=O)C(=O)N[C@@H](C(=O)N3C4CCC3CC(N)C4)C(F)(F)c3ccc(Br)cc3)ccc2c1 (stereo partly drawn) [Compound 9-2, N-((2S)-3-(3-amino-8-azabicyclo[3.2.1]octan-8-yl)-1-(4-bromophenyl)-1,1-difluoro-3-oxopropan-2-yl)-2-(6-isopropoxynaphthalen-2-yl)-2-oxoacetamide trifluoroacetate]",30 to 100
2,"NC1CC2CCC(C1)N2C(=O)[C@H](NS(=O)(=O)c1ccc(OCC2CCCC2)cc1)C(F)(F)c1ccc(Br)cc1 (stereo partly drawn) [Compound 20-2, N-((2S)-3-(3-amino-8-azabicyclo[3.2.1]octan-8-yl)-1-(4-bromophenyl)-1,1-difluoro-3-oxopropan-2-yl)-4-(cyclopentylmethoxy) benzenesulfonamide trifluoroacetate]",10 to 30
3,"CC(C)Oc1ccc2cc(S(=O)(=O)N[C@H](C(=O)N3C4CCC3CC(N(C)C)C4)C(F)(F)c3ccc(Br)cc3)ccc2c1 (stereo partly drawn) [Compound 21-1, N-((2R)-1-(4-bromophenyl)-3-(3-(dimethylamino)-8-azabicyclo[3.2.1]octan-8-yl)-1,1-difluoro-3-oxopropan-2-yl)-6-isopropoxynaphthalene-2-sulfonamide]",10 to 30
4,"CCCCOc1ccc(S(=O)(=O)N[C@H](C(=O)N2C3CCC2CC(N)C3)C(F)(F)c2ccc(Br)cc2)cc1 (stereo partly drawn) [Compound 22-1, N-((2R)-3-(3-amino-8-azabicyclo[3.2.1]octan-8-yl)-1-(4-bromophenyl)-1,1-difluoro-3-oxopropan-2-yl)-4-butoxybenzenesulfonamide]",1 to 10
5,"NC1CC2CCC(C1)N2C(=O)[C@H](NS(=O)(=O)c1ccc(Oc2ccc(Cl)cn2)cc1)C(F)(F)c1ccc(Br)cc1 (stereo partly drawn) [Compound 18-2, N-((2S)-3-(3-amino-8-azabicyclo[3.2.1]octan-8-yl)-1-(4-bromophenyl)-1,1-difluoro-3-oxopropan-2-yl)-4-((5-chloropyridin-2-yl)oxy) benzenesulfonamide trifluoroacetate]",30 to 100
6,"NC1CC2CCC(C1)N2C(=O)[C@H](NS(=O)(=O)c1ccc(OCc2ccc(Cl)cc2)cc1)C(F)(F)c1ccc(Br)cc1 (stereo partly drawn) [Compound 15-2, N-((2S)-3-(3-amino-8-azabicyclo[3.2.1]octan-8-yl)-1-(4-bromophenyl)-1,1-difluoro-3-oxopropan-2-yl)-4-((4-chlorobenzyl)oxy) benzenesulfonamide trifluoroacetate]",30 to 100
7,"NC1CC2CCC(C1)N2C(=O)[C@@H](NS(=O)(=O)c1ccc2cc(Oc3ccccn3)ccc2c1)C(F)(F)c1ccc(Br)cc1 (stereo partly drawn) [Compound 10-1, N-((2R)-3-(3-amino-8-azabicyclo[3.2.1]octan-8-yl)-1-(4-bromophenyl)-1,1-difluoro-3-oxopropan-2-yl)-6-(pyridin-2-yloxy)naphthalene-2-sulfonamide trifluoroacetate]",30 to 100
8,"NC1CC2CCC(C1)N2C(=O)[C@@H](NS(=O)(=O)c1ccc(OCc2ccc(Cl)cc2)cc1)C(F)(F)c1ccc(Br)cc1 (stereo partly drawn) [Compound 15-1, N-((2R)-3-(3-amino-8-azabicyclo[3.2.1]octan-8-yl)-1-(4-bromophenyl)-1,1-difluoro-3-oxopropan-2-yl)-4-((4-chlorobenzyl)oxy)benzenesulfonamide trifluoroacetate]",1 to 10
9,"NC1CC2CCC(C1)N2C(=O)[C@@H](NS(=O)(=O)c1ccc(Oc2ccc(F)cc2)cc1)C(F)(F)c1ccc(Br)cc1 (stereo partly drawn) [Compound 25-1, N-((2R)-3-(3-amino-8-azabicyclo[3.2.1]octan-8-yl)-1-(4-bromophenyl)-1,1-difluoro-3-oxopropan-2-yl)-4-(4-fluorophenoxy)benzenesulfonamide trifluoroacetate]",1 to 10
10,"CC(C)Oc1ccc2cc([C@@H](O)C(=O)N[C@H](C(=O)N3C4CCC3CC(N)C4)C(F)(F)c3ccc(Br)cc3)ccc2c1 (stereo partly drawn) [Compound 19-5, (2R)—N-((2R)-3-(3-amino-8-azabicyclo[3.2.1]octan-8-yl)-1-(4-bromophenyl)-1,1-difluoro-3-oxopropan-2-yl)-2-hydroxy-2-(6-isopropoxynaphthalen-2-yl)acetamide trifluoroacetate]",10 to 30
11,"CC(C)Oc1ccc2cc(S(=O)(=O)N[C@@H](C(=O)N3C4CCC3CC(N)C4)C(F)(F)c3ccc(Cl)cc3)ccc2c1 (stereo partly drawn) [Compound 8-2, N-((2S)-3-(3-amino-8-azabicyclo[3.2.1]octan-8-yl)-1-(4-chlorophenyl)-1,1-difluoro-3-oxopropan-2-yl)-6-isopropoxynaphthalene-2-sulfonamide trifluoroacetate]",10 to 30
12,"NC1CC2CCC(C1)N2C(=O)[C@@H](NS(=O)(=O)c1ccc(OCC2CCCC2)cc1)C(F)(F)c1ccc(Br)cc1 (stereo partly drawn) [Compound 20-1, N-((2R)-3-(3-amino-8-azabicyclo[3.2.1]octan-8-yl)-1-(4-bromophenyl)-1,1-difluoro-3-oxopropan-2-yl)-4-(cyclopentylmethoxy)benzenesulfonamide trifluoroacetate]",1 to 10
13,"NC1CC2CCC(C1)N2C(=O)[C@@H](NS(=O)(=O)c1ccc2cc(OCc3ccccc3)ccc2c1)C(F)(F)c1ccc(Br)cc1 (stereo partly drawn) [Compound 24-1, N-((2R)-3-(3-amino-8-azabicyclo[3.2.1]octan-8-yl)-1-(4-bromophenyl)-1,1-difluoro-3-oxopropan-2-yl)-6-(benzyloxy)naphthalene-2-sulfonamide]",1 to 10
14,"NC1CC2CCC(C1)N2C(=O)[C@H](NS(=O)(=O)c1ccc(OCCC2CCCCC2)cc1)C(F)(F)c1ccc(Br)cc1 (stereo partly drawn) [Compound 26-2, N-((2S)-3-(3-amino-8-azabicyclo[3.2.1]octan-8-yl)-1-(4-bromophenyl)-1,1-difluoro-3-oxopropan-2-yl)-4-(2-cyclohexylethoxy)benzenesulfonamide trifluoroacetate]",30 to 100
15,"CC(C)Oc1ccc2cc(S(=O)(=O)N[C@@H](C(=O)N3C4CCC3CC(N)C4)C(F)(F)c3ccc(Br)cc3)ccc2c1 (stereo partly drawn) [Compound 1-2, N-((2S)-3-(3-amino-8-azabicyclo[3.2.1]octan-8-yl)-1-(4-bromophenyl)-1,1-difluoro-3-oxopropan-2-yl)-6-isopropoxynaphthalene-2-sulfonamide]",10 to 30
16,"CC(C)COc1ccc2cc(S(=O)(=O)N[C@@H](C(=O)N3C4CCC3CC(N)C4)C(F)(F)c3ccc(Br)cc3)ccc2c1 (stereo partly drawn) [Compound 7-2, N-((2S)-3-(3-amino-8-azabicyclo[3.2.1]octan-8-yl)-1-(4-bromophenyl)-1,1-difluoro-3-oxopropan-2-yl)-6-isobutoxynaphthalene-2-sulfonamide]",30 to 100
